# Data reported in US10131653B2, “Heterocyclic compound” (TAKEDA PHARMACEUTICAL COMPANY LIMITED, priority 2015, dated 2018).
# Counter-ions that a name gives are not always drawn.
# Key:
# [1] = molecular target: T1, human OX2 receptor (Homo sapiens, UniProt O43614); test: Measurement of orexin receptor antagonistic activity (calcium fluorescence, FLIPRtetra); type: cell-based; conditions: 10 μM test compound, CHO cells expressing human OX2 receptor, OX-A 0.3 nM; for inhibition at 10 µM: CHO, read-out: Human Orexin2 receptor inhibition (at 10 μM)
# T1 construct: expressed in transfected cells; host or cells: CHO cells
# T1 sequence (O43614 1-444): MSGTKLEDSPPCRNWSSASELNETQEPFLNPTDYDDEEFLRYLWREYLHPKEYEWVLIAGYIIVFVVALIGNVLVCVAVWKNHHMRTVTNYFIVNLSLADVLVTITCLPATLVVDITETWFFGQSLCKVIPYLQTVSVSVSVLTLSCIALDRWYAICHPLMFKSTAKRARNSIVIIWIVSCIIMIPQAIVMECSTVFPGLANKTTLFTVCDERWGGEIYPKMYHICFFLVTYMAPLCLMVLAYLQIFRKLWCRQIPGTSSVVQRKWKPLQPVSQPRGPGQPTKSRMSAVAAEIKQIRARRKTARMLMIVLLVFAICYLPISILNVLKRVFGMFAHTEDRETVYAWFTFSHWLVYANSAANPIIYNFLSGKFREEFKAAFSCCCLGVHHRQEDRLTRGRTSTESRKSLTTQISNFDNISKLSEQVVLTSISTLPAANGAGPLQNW
# Method: (§1) Measurement of Orexin Receptor Antagonistic Activity
# (§2) CHO cells forcibly expressing human OX1 receptor or human OX2 receptor were seeded in each well of 384 well black transparent bottom plate (BD Falcon) at 7,500 cells/well, and cultured for one day in a 5% CO2 incubator at 37° C. […] The plate was stood for 30 min in a 5% CO2 incubator at 37° C., and further stood at room temperature for 30 min. A test compound prepared by diluting with assay buffer B (HBSS, 20 mM HEPES, 0.1% BSA) was added at 10 μL/well, and then OX-A (OX1 receptor, final concentration; 1 nM) or OX-A (OX2 receptor, final concentration; 0.3 nM) was added at 10 μL/well, and the fluorescence value was measured by FLIPRtetra (Molecular Devices) every one sec for 2 min.
# [2] = molecular target: T2, human OX1 receptor (Homo sapiens, UniProt O43613); test: as above; type: cell-based; conditions: 10 μM test compound, CHO cells expressing human OX1 receptor, OX-A 1 nM; for inhibition at 10 µM: CHO, read-out: Human Orexin1 receptor inhibition (at 10 μM)
# T2 construct: expressed in transfected cells; host or cells: CHO cells
# T2 sequence (O43613 1-425): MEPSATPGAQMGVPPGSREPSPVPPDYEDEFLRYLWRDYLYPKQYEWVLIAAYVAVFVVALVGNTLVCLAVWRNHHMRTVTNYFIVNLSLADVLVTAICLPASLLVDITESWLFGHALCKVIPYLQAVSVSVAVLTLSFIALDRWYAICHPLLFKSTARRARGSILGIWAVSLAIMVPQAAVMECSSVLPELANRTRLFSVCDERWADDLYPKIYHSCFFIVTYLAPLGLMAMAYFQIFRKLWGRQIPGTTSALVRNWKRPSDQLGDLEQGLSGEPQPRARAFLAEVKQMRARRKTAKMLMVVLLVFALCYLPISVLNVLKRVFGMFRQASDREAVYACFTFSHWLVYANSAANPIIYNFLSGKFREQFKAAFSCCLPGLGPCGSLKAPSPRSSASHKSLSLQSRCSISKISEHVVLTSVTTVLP
# Method: as §1, §2
SMILES,Human Orexin2 receptor inhibition (at 10 μM) [1] [%],Human Orexin1 receptor inhibition (at 10 μM) [2] [%],inhibition at 10 µM [1] [%],inhibition at 10 µM [2] [%]
"Cc1cc(N2CCN(C(=O)c3cc(Cl)ccc3-n3nccn3)CC(C)O2)nc(C)n1 (stereo in doubt) [Example 212, (5-chloro-2-(2H-1,2,3-triazol-2-yl)phenyl)((7R)-2-(2,6-dimethylpyrimidin-4-yl)-7-methyl-1,2,5-oxadiazepan-5-yl)methanone]",99,16,,
"Cc1nc(N2CCN(C(=O)c3cc(Cl)ccc3-n3nccn3)C[C@H](C)O2)cc(C(F)(F)F)n1 [Example 3, (5-chloro-2-(2H-1,2,3-triazol-2-yl)phenyl)((7S)-7-methyl-2-(2-methyl-6-(trifluoromethyl)pyrimidin-4-yl)-1,2,5-oxadiazepan-5-yl)methanone]",,,100,87
"Cc1ccc(-n2nccn2)c(C(=O)N2CCON(c3cc(C)nc(C)n3)CC2)c1 [Example 4, (2-(2,6-dimethylpyrimidin-4-yl)-1,2,5-oxadiazepan-5-yl)(5-methyl-2-(2H-1,2,3-triazol-2-yl)phenyl)methanone]",,,96,62
"Cc1cc(N2C[C@H](C)N(C(=O)c3ccccc3-c3nccs3)[C@H](C)CO2)nc(C)n1 [Example 5, ((4S,6R)-2-(2,6-dimethylpyrimidin-4-yl)-4,6-dimethyl-1,2,5-oxadiazepan-5-yl)(2-(1,3-thiazol-2-yl)phenyl)methanone]",,,99,101
"Cc1ccc(-n2nccn2)c(C(=O)N2CCN(c3cc(C)nc(C)n3)OC[C@H]2C)c1 [Example 6, ((6R)-2-(2,6-dimethylpyrimidin-4-yl)-6-methyl-1,2,5-oxadiazepan-5-yl)(5-methyl-2-(2H-1,2,3-triazol-2-yl)phenyl)methanone]",,,96,88
Cc1ccc(-n2nccn2)c(C(=O)N2CCON(c3ncc(C(F)(F)F)cn3)CC2)c1 [Example 9],,,74,91
"Cc1ccc(-n2nccn2)c(C(=O)N2CCON(c3ncc(C4CC4)cn3)CC2)c1 [Example 10, (2-(5-cyclopropylpyrimidin-2-yl)-1,2,5-oxadiazepan-5-yl)(5-methyl-2-(2H-1,2,3-triazol-2-yl)phenyl)methanone]",,,94,93
"Cc1ccc(-n2nccn2)c(C(=O)N2CCON(c3nc(C)cc(-c4ccc(F)cc4)n3)CC2)c1 [Example 12, (2-(4-(4-fluorophenyl)-6-methylpyrimidin-2-yl)-1,2,5-oxadiazepan-5-yl)(5-methyl-2-(2H-1,2,3-triazol-2-yl)phenyl)methanone]",,,93,101
"Cc1cc(N2CCN(C(=O)c3cc(F)ccc3-n3nccn3)CCO2)nc(C)n1 [Example 14, (2-(2,6-dimethylpyrimidin-4-yl)-1,2,5-oxadiazepan-5-yl)(5-fluoro-2-(2H-1,2,3-triazol-2-yl)phenyl)methanone]",,,91,23
"Cc1cc(N2CCN(C(=O)c3cc(F)c(F)cc3-n3nccn3)CCO2)nc(C)n1 [Example 15, (4,5-difluoro-2-(2H-1,2,3-triazol-2-yl)phenyl) (2-(2,6-dimethylpyrimidin-4-yl)-1,2,5-oxadiazepan-5-yl)methanone]",,,102,5
"Cc1cc(N2CCN(C(=O)c3c(F)cccc3-n3nccn3)CCO2)nc(C)n1 [Example 16, (2-(2,6-dimethylpyrimidin-4-yl)-1,2,5-oxadiazepan-5-yl) (2-fluoro-6-(2H-1,2,3-triazol-2-yl)phenyl)methanone hydrochloride]",,,98,21
"Cc1cc(N2CCN(C(=O)c3ccccc3-c3ncc(F)s3)CCO2)nc(C)n1 [Example 17, (2-(2,6-dimethylpyrimidin-4-yl)-1,2,5-oxadiazepan-5-yl) (2-(5-fluoro-1,3-thiazol-2-yl)phenyl)methanone]",,,102,41
"Cc1cc(N2CCN(C(=O)c3ccccc3-c3csc(C)n3)CCO2)nc(C)n1 [Example 19, (2-(2,6-dimethylpyrimidin-4-yl)-1,2,5-oxadiazepan-5-yl) (2-(2-methyl-1,3-thiazol-4-yl)phenyl)methanone]",,,100,36
"Cc1cc(N2CCN(C(=O)c3ccccc3-n3nccn3)CCO2)nc(C)n1 [Example 20, (2-(2,6-dimethylpyrimidin-4-yl)-1,2,5-oxadiazepan-5-yl) (2-(2H-1,2,3-triazol-2-yl)phenyl)methanone]",,,101,25
"Cc1cc(N2CCN(C(=O)c3ccccc3C3CCC3)CCO2)nc(C)n1 [Example 21, (2-cyclobutylphenyl) (2-(2,6-dimethylpyrimidin-4-yl)-1,2,5-oxadiazepan-5-yl)methanone]",,,99,19
"Cc1cc(N2CCN(C(=O)c3cc(Cl)ccc3C3CCC3)CCO2)nc(C)n1 [Example 22, (5-chloro-2-cyclobutylphenyl) (2-(2,6-dimethylpyrimidin-4-yl)-1,2,5-oxadiazepan-5-yl)methanone]",,,99,54
"Cc1cc(N2CCN(C(=O)c3ccccc3-c3cccs3)CCO2)nc(C)n1 [Example 23, (2-(2,6-dimethylpyrimidin-4-yl)-1,2,5-oxadiazepan-5-yl) (2-(2-thienyl)phenyl)methanone hydrochloride]",,,101,88
"Cc1cc(N2CCN(C(=O)c3ccccc3-c3nc(C)no3)CCO2)nc(C)n1 [Example 24, (2-(2,6-dimethyl-pyrimidin-4-yl)-1,2,5-oxadiazepan-5-yl) (2-(3-methyl-1,2,4-oxadiazol-5-yl)phenyl) methanone]",,,99,13
"Cc1cc(N2CCN(C(=O)c3cc(Cl)ccc3-n3nccn3)CCO2)nc(C)n1 [Example 25, (5-chloro-2-(2H-1,2,3-triazol-2-yl)phenyl) (2-(2,6-dimethyl-pyrimidin-4-yl)-1,2,5-oxadiazepan-5-yl)methanone]",,,98,61
"Cc1cc(N2CCN(C(=O)c3cc(Br)ccc3-n3nccn3)CCO2)nc(C)n1 [Example 26, (5-bromo-2-(2H-1,2,3-triazol-2-yl)phenyl) (2-(2,6-dimethyl-pyrimidin-4-yl)-1,2,5-oxadiazepan-5-yl)methanone]",,,100,83
"Cc1cc(N2CCN(C(=O)c3cc(F)ccc3-c3ncccn3)CCO2)nc(C)n1 [Example 27, (2-(2,6-dimethyl-pyrimidin-4-yl)-1,2,5-oxadiazepan-5-yl) (5-fluoro-2-(pyrimidin-2-yl)phenyl) methanone]",,,102,45
"Cc1cc(N2CCN(C(=O)c3cc(F)ccc3-n3cccn3)CCO2)nc(C)n1 [Example 28, (2-(2,6-dimethyl-pyrimidin-4-yl)-1,2,5-oxadiazepan-5-yl) (5-fluoro-2-(1H-pyrazol-1-yl)phenyl) methanone]",,,74,23
"Cc1cc(N2CCN(C(=O)c3ccccc3-c3nccs3)CCO2)nc(C)n1 [Example 29, (2-(2,6-dimethyl-pyrimidin-4-yl)-1,2,5-oxadiazepan-5-yl) (2-(1,3-thiazol-2-yl)phenyl) methanone]",,,100,88
"Cc1cc(N2CCN(C(=O)c3ccccc3-n3cccn3)CCO2)nc(C)n1 [Example 30, (2-(2,6-dimethyl-pyrimidin-4-yl)-1,2,5-oxadiazepan-5-yl) (2-(1H-pyrazol-1-yl)phenyl) methanone]",,,101,1
"Cc1cc(C)nc(N2CCN(C(=O)c3ccc(Cl)cc3)CCO2)n1 [Example 40, (4-chlorophenyl)(2-(4,6-dimethylpyrimidin-2-yl)-1,2,5-oxadiazepan-5-yl)methanone]",,,4,
